According to patent US8518966B2, “Amidoalkyl-8-azabicyclo[3.2.1]octane compounds as mu opioid receptor antagonists” (Theravance, Inc., priority 2007, dated 2013):

Columns and labels:
human mu opioid receptor [1] = target: T1, human mu opioid receptor (Homo sapiens, UniProt P35372); assay: biochemical; type: binding
T1 construct: host or cells: CHO-K1

human mu opioid receptor [2] = target: T1, human mu opioid receptor; assay: biochemical; settings: read-out: intrinsic activity (IA), bound GTP-Eu relative to DAMGO (IA=100)
[3] = tested on: loperamide-induced delayed gastric emptying; assay: Rat gastric emptying assay (reversal of loperamide-induced delayed gastric emptying); type: in vivo; settings: administered orally, loperamide 1 mg/kg s.c.

T1 sequence (P35372 whole entry): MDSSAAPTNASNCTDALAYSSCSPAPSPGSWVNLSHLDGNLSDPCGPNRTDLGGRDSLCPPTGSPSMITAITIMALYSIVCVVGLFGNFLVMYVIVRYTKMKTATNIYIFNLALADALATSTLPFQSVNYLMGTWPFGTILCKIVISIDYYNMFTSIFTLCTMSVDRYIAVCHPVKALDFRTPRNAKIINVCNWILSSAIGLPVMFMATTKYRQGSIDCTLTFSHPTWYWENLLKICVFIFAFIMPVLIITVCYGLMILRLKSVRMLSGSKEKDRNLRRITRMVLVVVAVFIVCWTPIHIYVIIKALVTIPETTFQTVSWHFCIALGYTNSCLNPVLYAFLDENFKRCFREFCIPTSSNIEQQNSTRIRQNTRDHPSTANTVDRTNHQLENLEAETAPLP

| Compound | pKi at the human mu opioid receptor (human mu opioid receptor [1]) | Emax (human mu opioid receptor [2]) | ID50, dose required for 50% reversal of the effects of loperamide [3] | Ki (human mu opioid receptor [1]) |
| --- | --- | --- | --- | --- |
| CCC(CC)CN(CCCN1[C@@H]2CC[C@H]1C[C@@H](c1cccc(C(N)=O)c1)C2)C(=O)CO [Example 1, 3-endo-(8-{3-[(2-ethylbutyl)-(2-hydroxyacetyl)-amino]propyl}-8-aza-bicyclo[3.2.1]oct-3-yl)-benzamide] | 10.0 | 3% | 0.29 mg/kg | – |
| CCC(CC)CN(CCCN1[C@@H]2CC[C@H]1C[C@@H](c1cccc(C(N)=O)c1)C2)C(=O)CS(C)(=O)=O [Example 6, 3-endo-(8-{3-[(2-ethylbutyl)-(2-methanesulfonyl-acetyl)amino]propyl}-8-azabicyclo[3.2.1]oct-3-yl)-benzamide] | – | 1% | – | 0.126 nM |
| CCC(CC)CN(CCN1[C@@H]2CC[C@H]1C[C@@H](c1cccc(C(N)=O)c1)C2)C(=O)CS(C)(=O)=O [Example 7, 3-endo-(8-{2-[(2-ethylbutyl)-(2-methanesulfonyl-acetyl)amino]ethyl}-8-azabicyclo[3.2.1]oct-3-yl)-benzamide] | – | 3% | 0.53 mg/kg | 0.158 nM |
